Measurements as given in patent US11773146B2, “Disruption of the WAVE3 protein complex for suppression of invasion and metastasis” (UNIVERSITY OF GEORGIA RESEARCH FOUNDATION, INC., priority 2015, dated 2023).
Entries after “also recorded” stand apart in the source; their conditions may differ. Bridges are numbered along the chain shown (N, C = ends). Where no end group is shown, it is not given here. [ ]: non-standard residue; d: D form. S5 = C=CCCC[C@](C)(N)C(=O)O

Columns and labels:
CYFIP1 = target: T1, CYFIP1 (Homo sapiens, UniProt Q7L576); experiment: Avidin-biotin pull down with biotinylated stapled peptides; format: binding; details: biotinylated peptide 10 μM, MDA-MB-231 cells
T1 construct: endogenous in cells; host or cells: MDA-MB-231
T1 sequence (Q7L576 whole entry): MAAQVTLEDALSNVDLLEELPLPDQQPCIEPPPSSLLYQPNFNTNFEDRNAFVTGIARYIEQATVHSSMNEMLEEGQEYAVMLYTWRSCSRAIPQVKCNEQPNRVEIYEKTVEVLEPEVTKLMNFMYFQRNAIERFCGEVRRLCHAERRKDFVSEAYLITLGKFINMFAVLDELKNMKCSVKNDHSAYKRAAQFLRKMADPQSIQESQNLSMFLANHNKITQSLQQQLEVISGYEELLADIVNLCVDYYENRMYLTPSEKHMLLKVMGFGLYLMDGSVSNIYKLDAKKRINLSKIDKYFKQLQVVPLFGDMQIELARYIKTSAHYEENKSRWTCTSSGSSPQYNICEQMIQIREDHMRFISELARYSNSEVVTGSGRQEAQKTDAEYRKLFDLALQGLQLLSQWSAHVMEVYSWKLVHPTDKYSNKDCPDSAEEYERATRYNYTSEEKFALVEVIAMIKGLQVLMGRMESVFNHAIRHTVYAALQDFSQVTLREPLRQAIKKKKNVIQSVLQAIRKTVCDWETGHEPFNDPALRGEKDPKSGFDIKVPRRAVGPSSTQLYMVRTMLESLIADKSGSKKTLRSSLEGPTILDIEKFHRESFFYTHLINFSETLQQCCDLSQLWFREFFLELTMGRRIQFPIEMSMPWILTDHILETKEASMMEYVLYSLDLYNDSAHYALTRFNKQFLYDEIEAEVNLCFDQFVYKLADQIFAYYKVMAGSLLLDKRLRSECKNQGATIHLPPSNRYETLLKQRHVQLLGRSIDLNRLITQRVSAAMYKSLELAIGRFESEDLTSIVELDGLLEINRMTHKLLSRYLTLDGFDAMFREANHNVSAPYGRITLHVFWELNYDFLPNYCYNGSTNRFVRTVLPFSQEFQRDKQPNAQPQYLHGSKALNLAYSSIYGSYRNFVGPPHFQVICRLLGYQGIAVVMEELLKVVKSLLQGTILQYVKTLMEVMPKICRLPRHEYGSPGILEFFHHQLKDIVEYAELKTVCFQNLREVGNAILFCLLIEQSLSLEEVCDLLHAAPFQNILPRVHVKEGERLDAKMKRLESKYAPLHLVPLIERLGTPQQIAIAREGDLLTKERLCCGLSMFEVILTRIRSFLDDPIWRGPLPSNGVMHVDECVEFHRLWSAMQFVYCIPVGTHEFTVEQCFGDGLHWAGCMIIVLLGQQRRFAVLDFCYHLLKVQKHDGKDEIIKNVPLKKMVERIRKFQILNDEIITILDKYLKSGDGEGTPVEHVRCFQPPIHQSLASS
Description: (§1) Immunoprecipitation assays were carried out as described previously (Sossey-Alaoui, K., et al. J. Biol. Chem. 82:26257-26265 (2007)). Specially, to determine the physical interaction with individual peptides, MDA-MB-231 cells were pretreated with 10 μM biotin-labeled peptides for 24 hours and lysates were incubated with immobilized avidin resin overnight at 4° C. The pull down samples were subjected to SDS-PAGE followed by Western blot analysis.
To determine whether the SPs formed a complex with WASF3 within the cells, MDA-MB-231 cells were exposed to biotinylated WAHM1 and WAHM2 for 6 hours, after which the cells were lysed and pull down assays were performed using avidin-coated beads.

WASF3-CYFIP1 complex = target: T2, WASF3-CYFIP1 complex (Homo sapiens, UniProt Q7L576); experiment: IP of WASF3: presence of CYFIP1 in the immunocomplex; format: cell-based; details: MDA-MB-231 cells treated with the SPs
T2 construct: endogenous in cells; host or cells: MDA-MB-231
T2 sequence (Q7L576 whole entry): as above
T2 sequence (Q9Y2A7 2-1128 partner limits assumed): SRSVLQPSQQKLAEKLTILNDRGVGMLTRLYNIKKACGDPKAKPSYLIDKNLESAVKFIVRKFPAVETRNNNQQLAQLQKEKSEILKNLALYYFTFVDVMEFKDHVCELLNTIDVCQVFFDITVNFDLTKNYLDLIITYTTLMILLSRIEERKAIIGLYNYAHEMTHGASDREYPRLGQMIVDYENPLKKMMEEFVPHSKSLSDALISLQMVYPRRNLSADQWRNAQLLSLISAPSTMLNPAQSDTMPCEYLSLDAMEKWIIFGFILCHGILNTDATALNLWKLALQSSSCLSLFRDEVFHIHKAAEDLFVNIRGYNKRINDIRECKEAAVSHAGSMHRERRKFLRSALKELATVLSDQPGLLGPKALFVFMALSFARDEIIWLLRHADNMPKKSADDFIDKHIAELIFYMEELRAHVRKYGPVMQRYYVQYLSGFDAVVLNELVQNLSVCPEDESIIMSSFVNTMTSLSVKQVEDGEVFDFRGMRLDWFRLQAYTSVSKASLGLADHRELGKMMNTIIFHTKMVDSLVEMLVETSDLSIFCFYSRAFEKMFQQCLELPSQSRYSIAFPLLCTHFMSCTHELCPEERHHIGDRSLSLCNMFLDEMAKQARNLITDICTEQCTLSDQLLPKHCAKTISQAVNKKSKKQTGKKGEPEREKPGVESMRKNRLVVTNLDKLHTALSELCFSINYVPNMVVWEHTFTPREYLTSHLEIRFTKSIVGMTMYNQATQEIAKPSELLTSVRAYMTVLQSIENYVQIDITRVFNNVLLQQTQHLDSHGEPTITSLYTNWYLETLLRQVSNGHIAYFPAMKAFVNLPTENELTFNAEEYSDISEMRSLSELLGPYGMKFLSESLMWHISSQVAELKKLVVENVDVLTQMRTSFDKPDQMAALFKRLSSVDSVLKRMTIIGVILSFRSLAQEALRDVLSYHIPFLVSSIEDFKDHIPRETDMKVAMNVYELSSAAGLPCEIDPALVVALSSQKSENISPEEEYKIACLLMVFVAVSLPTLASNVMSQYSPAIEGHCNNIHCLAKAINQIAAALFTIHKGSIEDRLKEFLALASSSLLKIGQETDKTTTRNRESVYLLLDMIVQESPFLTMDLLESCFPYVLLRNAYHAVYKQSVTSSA
Description: as §1

WASF3 [1] = experiment: Western blot of WASF3 protein levels after WAHM treatment; format: cell-based; details: for WASF3 levels in serum-starved cells: MDA-MB-231 and PC3 cells starved overnight, then treated for 4 hours; for intracellular levels of either WASF3 or CYFIP1: MDA-MB-231 cells; for WASF3 protein levels: MDA-MB-231 cells in serum, 2 to 24 hours
Description: (§2) Hs578T, MDA-MB-231, DU145 and PC3 cells were purchased from the American Type Culture Collection (ATCC) and maintained according to the supplier's instructions. Lentiviral transduction, cell proliferation assays, wound healing assays, Matrigel invasion assays, Western blotting, flow cytometry and confocal image analysis were carried out as described previously (Teng, Y., et al. Br. J. Cancer 103:1066-1075 (2010); Teng, Y., et al. Int. J. Cancer 129:2825-2835 (2011); Teng, Y., et al. Oncogene 33:203-211 (2014); Teng, Y., et al. J. Biol. Chem. 287:10051-10059 (2012); Teng, Y., et al. Carcinogenesis […] (2013); Teng, Y. et al. Oncogene Mar 30 (2015)).

MDA-MB-231 and PC3 cells [2] = experiment: MTS cell proliferation assay; format: cell-based; details: 10 μM over 24 hours
Description: as §2

MDA-MB-231 and PC3 cells [3] = experiment: Phalloidin staining and quantitation of filamentous actin; format: cell-based; details: 24 hours; for actin stress fibers (phalloidin staining): 10 μM; for fluorescence intensity of phalloidin stained cells: versus DMSO or scrambled peptides
Description: MDA-MB-231 and PC3 cells were seeded (10,000 cells per well) on slides with the Nunc™ Lab-Tek™ II Chamber Slide™ System (Thermo Fisher Scientific) in complete medium overnight and incubated with 10 μM WAHM or scrambled peptides for 24 hours. Cells were then fixed with 3.7% formaldehyde for 15 min and permeabilized with 0.1% Triton X-100 for 10 min and incubated with Texas-red phalloidin (Life technologies) for an additional 30 min to stain actin filaments. Cells were imaged using a Zeiss LSM 410 confocal microscope equipped with ×63 (1.4 numerical aperture) oil objective (Carl Zeiss) as previously described8. To quantitate the filamentous actin, cells were seeded at 2000 cells per well in a 96 well plate and treated with […] or scrambled peptides for 24 hours. Cells were then stained with phalloidin as described above, followed by extensive washings. Phallodin was solubilized with methanol and the supernatant was transferred to a clear-bottom black plate, and the fluorescence was determined using Infinite® M1000 PRO (Tecan). A parallel set of cells was used to determine cell number using the CellTiter-Glo® Luminescent Cell Viability kit from Promega (Madison), according to the manufacturer's parameters. Data from three independent experiments were expressed as mean relative fluorescence units per cell SEM.

MDA-MB-231 and PC3 cells [4] = experiment: Scratch wound assay; format: cell-based; details: breast and prostate cell lines, versus DMSO and scrambled peptide
Description: as §2

MDA-MB-231 and PC3 cells [5] = experiment: Transwell invasion analysis (WAHM peptides); format: cell-based; details: breast and prostate cells
Description: as §2

WASF3 [6] = experiment: IP analysis of WASF3 phosphorylation; format: cell-based; details: for WASF3 phosphorylation levels: MDA-MB-231 cells, same effect in PC3; for suppression of WASF3 phosphorylation compared with 17-AAG: comparison with HSP90 inhibitor 17-AAG
Description: as §1

KISS1 = experiment: Western blot of KISS1 levels; format: cell-based; details: MDA-MB-231 cells, compared with scrambled peptides
Description: as §2

MMP-9 = MMP-9 secretion in culture supernatant by ELISA; format: cell-based, Human; details: MDA-MB-231 and PC3 cells, 24 hours, compared with scrambled controls
Description: After incubation with WAHM or scrambled peptides for 24 hours, MDA-MB-231 and PC3 cell supernatants were recovered and centrifuged at 1000 g at 4° C. for 20 min. MMP-9 levels in supernatants were measured using the Human MMP-9 Quantikine® ELISA kit (R&D Systems) and microplate reader at 450 nm.

MDA-MB-231 cells = experiment: Transwell invasion assay (WANT peptides); format: cell-based; details: for invasion potential: final concentration of 10 μM
From the text: There are currently no small molecules that target WASF3 function directly, but targeting the WRC may provide a means of suppressing invasion.

[7] = test system: MDA-MB-231 and Hs578T cells; experiment: Transwell invasion assay with RAC1 inhibitor; format: cell-based; details: dose-dependent treatment
From the text: (§3) MDA-MB-231, Hs578T and T47D breast cancer cell lines were obtained directly from American Type Culture Collection (Rockville, Md.). MDA-MB-231 and T47D and have been verified using SNP-CGH (Teng Y, et al. Int J Cancer 2011 129:2825-2835) for characteristic cytogenetic changes. The ATCC Cell Authentication Testing service confirmed the identity of Hs578T using STR DNA fingerprinting analysis. Standard cell culture, transient transfections, RT-PCR, western blotting, immunoprecipitation (IP), flow cytometry, Biotin-Avidin pulldown, lentiviral transduction, cell proliferation and Transwell invasion assays were carried out as described previously (Teng Y, et al. Int J Cancer 2011 129:2825-2835; Teng Y, et al. J Biol Chem 2012 287:10051-10059; Teng Y, et al. Carcinogenesis 2013 34:1994-1999).

WASF3, NCKAP1 or RAC1 = experiment: Western blot of protein levels with RAC1 inhibitor; format: cell-based; details: MDA-MB-231 and Hs578T cells
From the text: as §3

[8] = test system: MDA-MB-231 cells overexpressing NCKAP1; experiment: Transwell invasion assay in cells overexpressing NCKAP1; format: cell-based; details: parental cells with empty vector and cells overexpressing NCKAP1
From the text: as §3
Lentiviral pCDH-CMV-MCS-EF1-PURO-HA-WASF3 (pCDH-HA-WASF3) was generated as described previously (Teng Y, et al. Carcinogenesis 2013 34:1994-1999). To construct the HA-NCKAP1 overexpression vector, the full-length human NCKAP1 was amplified from the template NCKAP1 cDNA clone (OriGene, Rockville, Md.) and was inserted into pCDHCMV-MCS-EF1-GFP lentiviral vector (System Biosciences, Mountain View, Calif.) as described previously (Teng Y, et al. Oncogene 2014 33:203-211). […]

Molecule	CYFIP1 in the pull down complex (CYFIP1)	CYFIP1 in WASF3 immunocomplex (WASF3-CYFIP1 complex)	WASF3 levels in serum-starved cells (WASF3 [1])	intracellular levels of either WASF3 or CYFIP1 (WASF3 [1])	WASF3 protein levels (WASF3 [1])	cell proliferation (MTS) (MDA-MB-231 and PC3 cells [2])	actin stress fibers (phalloidin staining) (MDA-MB-231 and PC3 cells [3])	fluorescence intensity of phalloidin stained cells (MDA-MB-231 and PC3 cells [3])	migration potential / cell motility (MDA-MB-231 and PC3 cells [4])	effect on invasion (in words) (MDA-MB-231 and PC3 cells [5])	WASF3 phosphorylation levels (WASF3 [6])	suppression of WASF3 phosphorylation compared with 17-AAG (WASF3 [6])	KISS1 protein levels (KISS1)	secreted MMP9 levels (MMP-9)	invasion potential (MDA-MB-231 cells)	further results
LEKKTN*TLA*IIRQL (LEKKTN[S5]TLA[S5]IIRQL-NH2; staple 7-11; not fully specified (N-terminus)) [WAHM2, WASF Helix Mimic stapled peptide; * is (S)-2-(4′-pentenyl)alanine that forms the staple]	CYFIP1 was present in the pull down complex; also recorded: CYFIP1 was shown to interact	CYFIP1 was not present in the immunocomplex	reduced below detectable levels	did not affect	WASF3 protein levels were not affected; also recorded: without a reduction in WASF3 protein levels; also recorded: no reduction in WASF3 protein levels	no significant difference in cell proliferation	increase in both the number and thickness of the actin stress fibers	increased intensity	reduced migration potential; also recorded: significant reduction in cell motility	significantly suppresses invasion	dramatic decrease in WASF3 phosphorylation levels; also recorded: reduction in WASF3 phosphorylation	more efficient	increased KISS1 levels; also recorded: KISS1 levels increase	remarkable reduction in secreted MMP9 levels; also recorded: significantly reduced MMP9 levels		
ELXSSIXDFKDHK (EL[S5]SSI[S5]DFKDHK-NH2; staple 3-7) [WANT2, WASF3-NCKAP1 Target stapled peptide; X is (S)-2-(4′-pentenyl)alanine]															no significant effect on invasion potential	
C=CCNC1=C2C[C@@H](C)C[C@H](OC)[C@H](O)[C@@H](C)/C=C(\C)[C@H](OC(N)=O)[C@@H](OC)/C=C\C=C(/C)C(=O)NC(=CC1=O)C2=O [17-AAG, reference compound]											reduced WASF3 phosphoactivation					
LEK*TNS*LAKIIRQL (LEK[S5]TNS[S5]LAKIIRQL-NH2; staple 4-8; not fully specified (N-terminus)) [WAHM1, WASF Helix Mimic stapled peptide; * is (S)-2-(4′-pentenyl)alanine that forms the staple]	CYFIP1 was present in the pull down complex; also recorded: CYFIP1 was shown to interact	CYFIP1 was not present in the immunocomplex	reduced below detectable levels	did not affect	WASF3 protein levels were not affected; also recorded: without a reduction in WASF3 protein levels; also recorded: no reduction in WASF3 protein levels	no significant difference in cell proliferation	increase in both the number and thickness of the actin stress fibers	increased intensity	reduced migration potential; also recorded: significant reduction in cell motility	significantly suppresses invasion	dramatic decrease in WASF3 phosphorylation levels; also recorded: reduction in WASF3 phosphorylation	more efficient	increased KISS1 levels; also recorded: KISS1 levels increase	remarkable reduction in secreted MMP9 levels; also recorded: significantly reduced MMP9 levels		suppression of invasion, WAHM1 compared with WANT3 (MDA-MB-231 cells): comparable suppression of invasion
CCN(CC)CCCC(C)Nc1nc(C)cc(Nc2ccc3nc(C)cc(N)c3c2)n1 (stereo not drawn) [NSC23766]																invasion [7]: dose-dependent reduction in invasion potential; protein levels of either WASF3, NCKAP1 or RAC1 (WASF3, NCKAP1 or RAC1): without affecting; also recorded: does not affect protein levels; invasion potential in cells expressing NCKAP1 [8]: significant reduction in invasion; invasion potential in cells expressing NCKAP1 ([8]; listed as NSC23677): significant reduction of invasion potential
KHCAXTISXAVNK (KHCA[S5]TIS[S5]AVNK-NH2; staple 5-9) [WANT1, WASF3-NCKAP1 Target stapled peptide; X is (S)-2-(4′-pentenyl)alanine]															no significant effect on invasion potential	
